US10344025B2, “GLS1 inhibitors for treating disease” (Board of Regents, The University of Texas System, priority 2014, dated 2019)
Read-outs that look alike come from different tables or passages of the source.

Key:
[1] = test system: A549 cells; experiment: Proliferation Assay (A549 viability, Cell Titer Fluor, 72 hours); type: cell-based
Procedure, shortened: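 A549 cells seeded at 1000 cells/well, rested 24 h, then exposed to compound in 0.5% DMSO for 72 h at 37 °C. Viability read by Cell Titer Fluor fluorescence; IC50 from four-parameter logistic fit.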

[2] = target: purified recombinant human GAC (GLS1) (Homo sapiens (Human), UniProt O94925); experiment: GLS1 Enzymatic Activity Assay (dual-coupled enzymatic assay, resorufin/Amplex UltraRed readout); type: biochemical;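 further: glutamate from GAC coupled via glutamate oxidase and peroxidase to resorufin, read as fluorescence (ex 530, em 590 nm) kinetically or at 20 min, four-parameter logistic IC50 fit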
Sequence of purified recombinant human GAC (GLS1) (O94925 other isoform, or with tags, fused parts or gaps): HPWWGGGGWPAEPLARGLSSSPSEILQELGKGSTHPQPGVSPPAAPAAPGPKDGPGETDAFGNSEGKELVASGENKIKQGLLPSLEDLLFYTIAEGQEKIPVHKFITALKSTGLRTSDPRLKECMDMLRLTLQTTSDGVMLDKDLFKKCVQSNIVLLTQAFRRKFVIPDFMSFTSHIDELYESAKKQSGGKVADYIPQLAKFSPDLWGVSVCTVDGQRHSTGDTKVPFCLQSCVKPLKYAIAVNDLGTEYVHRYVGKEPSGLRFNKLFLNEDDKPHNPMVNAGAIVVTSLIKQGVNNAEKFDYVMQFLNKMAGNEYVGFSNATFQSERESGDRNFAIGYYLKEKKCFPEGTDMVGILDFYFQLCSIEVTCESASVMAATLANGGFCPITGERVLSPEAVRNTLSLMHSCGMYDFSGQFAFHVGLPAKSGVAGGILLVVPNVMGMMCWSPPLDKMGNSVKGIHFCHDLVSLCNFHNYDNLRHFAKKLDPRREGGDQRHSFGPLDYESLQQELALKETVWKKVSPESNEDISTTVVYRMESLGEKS

EC50 ([1]; Homo sapiens, A549, 72 h) [nM]	IC50 [2] [nM]	EC50 [1] [nM]	SMILES	EC50 ([1]; Homo sapiens) [nM]
< 100	< 100		O=C(Cc1cc(OC(F)(F)F)ccc1F)Nc1cn(CCC(F)Cn2cc(C(=O)NCc3ncccc3F)nn2)nn1 (stereo not shown) [Example 417, 1-[2-fluoro-4-(4-{2-[2-fluoro-5-(trifluoromethoxy)phenyl]acetamido}-1H-1,2,3-triazol-1-yl)butyl]-N-[(3-fluoropyridin-2-yl)methyl]-1H-1,2,3-triazole-4-carboxamide]	
500 to 5000	< 100		O=C(NCc1cccc(CO)c1)c1cn(CCCCn2cc(C(=O)NCc3cc(C(F)(F)F)ccn3)nn2)nn1 [Example 113, 1-{4-[4-({[3-(hydroxymethyl)phenyl]methyl}carbamoyl)-1H-1,2,3-triazol-1-yl]butyl}-N-{[4-(trifluoromethyl)pyridin-2-yl]methyl}-1H-1,2,3-triazole-4-carboxamide]	
	< 100	< 100	CNC(=O)c1cn(C[C@@H](F)CCc2nnc(NC(=O)Cc3cccc(OC(F)(F)F)c3)s2)nn1 [Example 194, (S)-1-(2-fluoro-4-(5-(2-(3-(trifluoromethoxy)phenyl)acetamido)-1,3,4-thiadiazol-2-yl)butyl)-N-methyl-1H-1,2,3-triazole-4-carboxamide]	
500 to 5000	100 to 500		CNC(=O)c1cn(CCCCc2ccc(NC(=O)Cc3cnccn3)nn2)nn1 [Example 579, N-methyl-1-(4-(6-(2-(pyrazin-2-yl)acetamido)pyridazin-3-yl)butyl)-1H-1,2,3-triazole-4-carboxamide]	
100 to 500	< 100		CNC(=O)c1nnc(CCC(F)Cn2cc(C(=O)NCc3cccc(OC(F)(F)F)c3)nn2)s1 (stereo not shown) [Example 504, 5-{3-fluoro-4-[4-({[3-(trifluoromethoxy)phenyl]methyl}carbamoyl)-1H-1,2,3-triazol-1-yl]butyl}-N-methyl-1,3,4-thiadiazole-2-carboxamide]	
< 100	< 100		O=C(NCc1cccc(OC(F)(F)F)c1)c1cn(CCCCn2cc(C(=O)NCc3cncc(C(F)(F)F)c3)nn2)nn1 [Example 80, N-(3-(trifluoromethoxy)benzyl)-1-(4-(4-(((5-(trifluoromethyl)pyridin-3-yl)methyl)carbamoyl)-1H-1,2,3-triazol-1-yl)butyl)-1H-1,2,3-triazole-4-carboxamide]	
< 100	< 100		CNC(=O)c1cn(CC(F)CCc2ccc(NC(=O)Cc3cc(C(F)(F)F)cc(C4CC4)n3)nn2)nn1 (stereo not shown) [Example 263, 1-(4-(6-(2-(6-cyclopropyl-4-(trifluoromethyl)pyridin-2-yl)acetamido)pyridazin-3-yl)-2-fluorobutyl)-N-methyl-1H-1,2,3-triazole-4-carboxamide]	
< 100	< 100		Cc1ccc(CC(=O)Nc2cn(CCCCn3cc(C(=O)NCc4cccc(OC(F)(F)F)c4)nn3)nn2)cn1 [Example 313, 1-(4-{4-[2-(6-methylpyridin-3-yl)acetamido]-1H-1,2,3-triazol-1-yl}butyl)-N-{[3-(trifluoromethoxy)phenyl]methyl}-1H-1,2,3-triazole-4-carboxamide]	
> 5000	500 to 5000		O=C(NCc1cc(C(F)(F)F)ccn1)c1cn(CCCCn2cc(C(=O)NCC3CCOC3)nn2)nn1 (stereo not shown) [Example 86]	
< 100	< 100		O=C(Cc1cc(OC(F)(F)F)ccc1F)Nc1cn(CCCCn2cc(C(=O)NCc3cc(Cl)ccc3F)nn2)nn1 [Example 384, N-[(5-chloro-2-fluorophenyl)methyl]-1-[4-(4-{2-[2-fluoro-5-(trifluoromethoxy)phenyl]acetamido}-1H-1,2,3-triazol-1-yl)butyl]-1H-1,2,3-triazole-4-carboxamide]	

SMILES	EC50 ([1]; Homo sapiens, A549, 72 h) [nM]	IC50 [2] [nM]	EC50 [1] [nM]	EC50 ([1]; Homo sapiens) [nM]
CNC(=O)c1cn(CC(F)CCc2nnc(C(=O)NCc3cc(C(F)(F)F)ccn3)s2)nn1 (racemic) [Example 508, 5-(3-fluoro-4-(4-(methylcarbamoyl)-1H-1,2,3-triazol-1-yl)butyl)-N-((4-(trifluoromethyl)pyridin-2-yl)methyl)-1,3,4-thiadiazole-2-carboxamide]		100 to 500		100 to 500
